Results as given in ChEMBL document CHEMBL4257485, “The critical role of novel benzophenone analogs on tumor growth inhibition targeting angiogenesis and apoptosis” (Medchemcomm, 2018).
Activity calls are given as the source filed them. The rule behind the calls is not given here.

Legend:
HeLa [1] = experiment: Cytotoxicity against human HeLa cells after 48 hrs by MTT assay; format: functional, cell-based
MCF7 [2] = experiment: Cytotoxicity against human MCF7 cells after 48 hrs by MTT assay; format: functional, cell-based; details: MCF7, 48 h
HeLa [3] = experiment: Cytotoxicity against human HeLa cells after 48 hrs by trypan blue exclusion assay; format: functional, cell-based
MCF7 [4] = experiment: Cytotoxicity against human MCF7 cells after 48 hrs by trypan blue exclusion assay; format: functional, cell-based; details: MCF7, 48 h
NIH3T3 [5] = experiment: Cytotoxicity against mouse NIH/3T3 cells after 48 hrs by LDH release assay; format: cell-based; details: NIH3T3, 48 h
MCF7 [6] = experiment: Cytotoxicity against human MCF7 cells after 48 hrs by LDH release assay; format: functional, cell-based; details: MCF7, 48 h
A549 [7] = experiment: Cytotoxicity against human A549 cells after 48 hrs by trypan blue exclusion assay; format: functional, cell-based; details: A549, 48 h
A549 [8] = experiment: Cytotoxicity against human A549 cells after 48 hrs by MTT assay; format: functional, cell-based; details: A549, 48 h
HeLa [9] = experiment: Cytotoxicity against human HeLa cells after 48 hrs by LDH release assay; format: functional, cell-based
NIH3T3 [10] = experiment: Cytotoxicity against mouse NIH/3T3 cells after 48 hrs by MTT assay; format: cell-based; details: NIH3T3, 48 h
A549 [11] = experiment: Cytotoxicity against human A549 cells after 48 hrs by LDH release assay; format: functional, cell-based; details: A549, 48 h
NIH3T3 [12] = experiment: Cytotoxicity against mouse NIH/3T3 cells after 48 hrs by trypan blue exclusion assay; format: cell-based; details: NIH3T3, 48 h
A549 [13] = experiment: Cell cycle arrest in human A549 cells assessed as accumulation at S phase after 16 hrs by propidium iodide staining-based flow cytometric method (reference value: 24.8%); format: functional
A549 [14] = experiment: Induction of apoptosis in human A549 cells assessed as live cells after 12 to 15 hrs by annexin-V-FITC/propidium iodide staining-based flow cytometric method (reference value: 73.8%); format: functional
A549 [15] = experiment: Induction of apoptosis in human A549 cells assessed as cell condensation after 12 to 15 hrs by flow cytometric method; format: functional, cell-based
A549 [16] = experiment: Induction of apoptosis in human A549 cells assessed a late apoptotic cells after 12 to 15 hrs by annexin-V-FITC/propidium iodide staining-based flow cytometric method (reference value: 14.3%); format: functional
A549 [17] = experiment: Induction of apoptosis in human A549 cells assessed a necrotic cells after 12 to 15 hrs by annexin-V-FITC/propidium iodide staining-based flow cytometric method (reference value: 10.2%); format: functional
A549 [18] = experiment: Induction of apoptosis in human A549 cells assessed as formation of apoptotic bodies after 12 to 15 hrs by flow cytometric method; format: functional, cell-based
A549 [19] = experiment: Cell cycle arrest in human A549 cells assessed as accumulation at G0/G1 phase after 16 hrs by propidium iodide staining-based flow cytometric method (reference value: 70.8%); format: functional
A549 [20] = experiment: Cell cycle arrest in human A549 cells assessed as accumulation at G2/M phase after 16 hrs by propidium iodide staining-based flow cytometric method (reference value: 3.44%); format: functional
A549 [21] = experiment: Induction of apoptosis in human A549 cells assessed as early apoptotic cells after 12 to 15 hrs by annexin-V-FITC/propidium iodide staining-based flow cytometric method (reference value: 1.65%); format: functional
A549 [22] = experiment: Cell cycle arrest in human A549 cells assessed as accumulation at sub-G1 phase after 16 hrs by propidium iodide staining-based flow cytometric method (reference value: 0.69%); format: functional

Row | Structure (SMILES) | IC50 (HeLa [1]) | IC50 (MCF7 [2]) | IC50 (HeLa [3]) | IC50 (MCF7 [4]) | IC50 (NIH3T3 [5]) | IC50 (MCF7 [6]) | IC50 (A549 [7]) | IC50 (A549 [8]) | IC50 (HeLa [9]) | IC50 (NIH3T3 [10]) | IC50 (A549 [11]) | IC50 (NIH3T3 [12]) | further results
1 | Cn1cnc(C(=O)NNC(=O)COc2c(F)cc(C(=O)c3ccc(F)cc3)cc2Cl)c1 | 42.2 µM | 45.1 µM | 39.9 µM | 44.6 µM | 94.4 µM | 44.6 µM | 39.6 µM | 40.1 µM | 40.9 µM | 89.2 µM | 40.7 µM | 94.2 µM | –
2 | Cn1cnc(C(=O)NNC(=O)COc2ccc(C(=O)c3ccccc3)cc2)c1 | 32.9 µM | 30.6 µM | 33.2 µM | 29.6 µM | 97.4 µM | 31.6 µM | 29.6 µM | 30.6 µM | 31.9 µM | 96.9 µM | 31.6 µM | 98.8 µM | –
3 | O=C(COc1c(F)cc(C(=O)c2ccc(F)cc2)cc1Cl)NNC(=O)c1ccc(=O)oc1 | 59.9 µM | 63.2 µM | 59.2 µM | 62.2 µM | 89.8 µM | 61.1 µM | 56.7 µM | 58.8 µM | 60.1 µM | 87.8 µM | 60.2 µM | 85.4 µM | –
4 | Cn1cnc(C(=O)NNC(=O)COc2c(F)cc(C(=O)c3ccc(Cl)cc3)cc2Cl)c1 | – | 43.1 µM | 51.6 µM | 47.3 µM | 89.3 µM | 44.4 µM | 47.3 µM | 49.1 µM | 54.5 µM | 87.8 µM | 45.8 µM | 90.9 µM | –
5 | CC[C@@]1(O)C(=O)OCc2c1cc1n(c2=O)Cc2cc3ccccc3nc2-1 [CAMPTOTHECIN] | – | – | – | – | – | – | – | – | – | – | – | – | Activity (A549 [13]): 19.2%; Activity (A549 [14]): 65.1%; Activity (A549 [15]): Active; Activity (A549 [16]): 23.6%; Activity (A549 [17]): 9.12%; Activity (A549 [18]): Active; Activity (A549 [19]): 59.4%; Activity (A549 [20]): 2.43%; Activity (A549 [21]): 2.16%; Activity (A549 [22]): 19%
